In US9605004B2, “Chemical compounds” (SYNGENTA LIMITED, priority 2013, dated 2017):

What was measured:
[1] = test system: a variety of test species; test: Pre-emergence herbicidal activity (Example 8a, Table 2); format: in vivo; design: key: 0 = no damage to plant, 5 = total damage to plant; settings: application pre-emergence, rate 1000 g/ha, evaluated after 13 days
Method: Seeds of a variety of test species were sown in standard soil in pots. After cultivation for one day (pre-emergence) under controlled conditions in a glasshouse (at 24/16° C., day/night; 14 hours light; 65% humidity), the plants were sprayed with an aqueous spray solution derived from the formulation of the technical active ingredient in acetone/water (50:50) solution containing 0.5% Tween 20 (polyoxyethelyene sorbitan monolaurate, CAS RN 9005-64-5). The test plants were then grown in a glasshouse under controlled conditions (at 24/16° C., day/night; 14 hours light; 65% humidity) and watered twice daily. After 13 days, the test was evaluated (5=total damage to plant; 0=no damage to plant).

[2] = test system: a variety of test species; test: Post-emergence herbicidal activity (Example 8b, Table 3); format: in vivo; settings: application post-emergence, rate 1000 g/ha, evaluated after 13 days, scale 0-5; for Herbicidal damage score, ABUTH: Abutilon theophrasti; for Herbicidal damage score, ALOMY: Alopecurus myosuroides; for Herbicidal damage score, AMARE: Amaranthus retroflexus; for Herbicidal damage score, ECHCG: Echinochloa crus-galli; for Herbicidal damage score, SETFA: Setaria faberi; for Herbicidal damage score, ZEAMX: Zea mays
Method: Seeds of a variety of test species were sown in standard soil in pots. After 8 days cultivation (post-emergence) under controlled conditions in a glasshouse (at 24/16° C., day/night; 14 hours light; 65% humidity), the plants were sprayed with an aqueous spray solution derived from the formulation of the technical active ingredient in acetone/water (50:50) solution containing 0.5% Tween 20 (polyoxyethelyene sorbitan monolaurate, CAS RN 9005-64-5). The test plants were then grown in a glasshouse under controlled conditions (at 24/16° C., day/night; 14 hours light; 65% humidity) and watered twice daily. After 13 days, the test was evaluated (5=total damage to plant; 0=no damage to plant).

Row | Compound | Pre-emergence herbicidal activity, damage score ABUTH [1] | Pre-emergence herbicidal activity, damage score ALOMY [1] | Pre-emergence herbicidal activity, damage score ECHCG [1] | Pre-emergence herbicidal activity, damage score SETFA [1] | Pre-emergence herbicidal activity, damage score ZEAMX [1] | Herbicidal damage score, ABUTH [2] | Herbicidal damage score, ALOMY [2] | Herbicidal damage score, AMARE [2] | Herbicidal damage score, ECHCG [2] | Herbicidal damage score, SETFA [2] | Herbicidal damage score, ZEAMX [2] | Pre-emergence herbicidal activity, damage score AMARE [1]
1 | CC(C)=CCc1cc(N2C(=O)C(Cl)=C(C)C2O)nn1C (centres unmarked) [Compound B10, 4-chloro-2-hydroxy-3-methyl-1-[1-methyl-5-(3-methylbut-2-enyl)pyrazol-3-yl]-2H-pyrrol-5-one] | 0 | 0 | 0 | 0 | 0 | 3 | 0 | 0 | 2 | 5 | 2 | –
2 | CC1=C(Cl)C(=O)N(c2cc(/C=C/C(C)(C)C)n(C)n2)C1O (centres unmarked) [Compound B11] | 2 | 2 | 4 | 3 | 2 | 5 | 3 | 5 | 5 | 5 | 1 | 4
3 | CC1=C(Cl)C(=O)N(c2cc(C3=CCC(C)(C)CC3)n(C)n2)C1O (centres unmarked) [Compound B12] | 4 | 0 | 0 | 2 | 1 | 1 | 1 | 2 | 1 | 1 | 1 | 1
4 | CC1=C(Cl)C(=O)N(c2cc(C(F)(F)C(F)(F)F)n(C)n2)C1O (centres unmarked) [Compound B13] | 5 | 4 | 5 | 5 | 2 | 5 | 5 | 5 | 5 | 5 | 3 | 5
5 | CC1=C(Cl)C(=O)N(c2cc(C(C)C)n(C)n2)C1O (centres unmarked) [Compound B14] | 5 | 3 | 5 | 4 | 2 | 5 | 4 | 5 | 5 | 4 | 5 | 5
6 | CC1=C(Cl)C(=O)N(c2ccn(C)n2)C1O (centres unmarked) [Compound B15] | 4 | 3 | 4 | 4 | 2 | 4 | 3 | 4 | 4 | 2 | 1 | 5
7 | CC1=C(Cl)C(=O)N(c2cc(I)n(C)n2)C1O (centres unmarked) [Compound B16] | 4 | 4 | 4 | – | 3 | – | – | – | – | – | 4 | –
8 | CC1=C(Cl)C(=O)N(c2cc(/C=C/C(C)(C)C)n(C)n2)C1O (centres unmarked) [Compound B17] | 2 | 2 | 4 | 3 | 2 | 5 | 3 | 5 | 5 | 5 | 1 | 4
9 | CC1=C(Cl)C(=O)N(c2cc(Cl)n(C)n2)C1O (centres unmarked) [Compound B18] | 4 | 3 | 4 | 5 | 2 | 5 | 5 | 5 | 5 | 5 | 5 | 5
10 | CC(C)=Cc1cc(N2C(=O)C(Cl)=C(C)C2O)nn1C (centres unmarked) [Compound B20] | 4 | 2 | 4 | 4 | 2 | – | 4 | – | – | – | 2 | 4
11 | C/C=C/c1cc(N2C(=O)C(Cl)=C(C)C2O)nn1C (centres unmarked) [Compound B21] | 2 | 3 | 4 | 3 | 0 | 4 | 2 | 4 | 4 | 5 | 0 | 4
12 | CC(C)=CCc1cc(N2C(=O)C(Cl)=C(C)C2O)nn1C (centres unmarked) [Compound B22] | 0 | 0 | 0 | 0 | 0 | 3 | 0 | 0 | 2 | – | 2 | –
13 | C=CCC(C)(C)c1cc(N2C(=O)C(Cl)=C(C)C2O)nn1C (centres unmarked) [Compound B23] | – | 4 | 4 | – | 4 | – | – | – | – | – | 4 | –
14 | CC1=C(Cl)C(=O)N(c2cc(Cc3ccccc3)n(C)n2)C1O (centres unmarked) [Compound B24] | 3 | 3 | 3 | 3 | 0 | 5 | 4 | 5 | 5 | 5 | 1 | 3
15 | CC1=C(Cl)C(=O)N(c2cc(C#CC(C)(C)C)n(C)n2)C1O (centres unmarked) [Compound B25] | 0 | 0 | 0 | 0 | 0 | 3 | 1 | 3 | 1 | 1 | 0 | 2
16 | CC1=C(Cl)C(=O)N(c2cc(CCC(C)C)n(C)n2)C1O (centres unmarked) [Compound B27] | 3 | 1 | 4 | 3 | 2 | 3 | 1 | 2 | 5 | 5 | 0 | 5
